Like-named read-outs stand apart in the source and are kept apart here. Marks after values point to notes of the source that are not given here.
Experiments:
[1] = target: T1, BlaC (Mycobacterium tuberculosis, UniProt P9WKD3); settings: for Km: read-out: BlaC Km
[2] = target: TEM-1 Bla (Escherichia coli, UniProt P62593); test: Fluorescence activation of probes by TEM-1 Bla; format: biochemical, E. coli; settings: for change in fluorescence with TEM-1 Bla (in words): TEM-1 Bla 50 nM, 30 minutes
Experimental: (§1) The fluorescent spectra of the probes CDC-1, CDC-3, CDC-OMe and CDC-OEt were recorded before and after BlaC treatment to examine their responses to BlaC.
(§2) The response of CDC-OMe to varying concentrations of BlaC and TEM-1 Bla (at a range of 1 pM to 100 nM) was examined to investigate its specificity (FIG. 1C). 1 nM of BlaC (100 μL) induced a 130% increase in the fluorescence intensity within one hour (F/F0=2.3), while a 100-fold higher TEM-1 Bla concentration (100 nM) could only produce 30% fluorescence enhancement (F/F0=1.3).
(§3) Even at a more than 1000-fold higher concentration, the fluorescence signal of CDG-OMe generated by TEM-1 Bla (400 nM) was just 30% of that by BlaC (400 pM) in 300 mins, confirming its high selectivity for BlaC (FIG. 5C). Less than 1 fmol of BlaC was readily detectable with CDG-OMe after 8 hours incubation (FIG. 5D).

[3] = tested on: BlaC-expressing E. coli; format: cell-based
[4] = target: T1, BlaC; test: Fluorescence activation of probes by BlaC; format: biochemical
Experimental: as §1, §2, §3

[5] = tested on: TEM-1 Bla-expressing E. coli; format: cell-based
[6] = tested on: M. tuberculosis var. bovis strain BCG; format: cell-based, Mycobacterium tuberculosis var. bovis strain BCG
[7] = tested on: COc1ccc(-c2c3ccc(=O)cc-3oc3cc(OCc4ccc(OCC5=C(C(=O)O)N6C(=O)[C@@H](NC(=O)Cc7ccccc7)[C@H]6SC5)cc4)ccc23)c(C)c1; test: purified protein, by the assay type; settings: 22.0 °C
[8] = tested on: O=C(Cc1ccccc1)N[C@@H]1C(=O)N2C(C(=O)O)=C(COc3ccc4ccc(=O)oc4c3)C[S@+]([O-])[C@H]12; test: purified protein, by the assay type; settings: pH 7.4; 22.0 °C
[9] = tested on: COc1ccc(-c2c3ccc(=O)cc-3oc3cc(OCc4ccc(OCC5=C(C(=O)O)N6C(=O)[C@](NC(=O)Cc7ccccc7)(OC)[C@H]6SC5)cc4)ccc23)c(C)c1; test: purified protein, by the assay type; settings: 22.0 °C
[10] = 1 nM of BlaC (100 μL), within one hour

Chain of TEM-1 Bla (P62593 24-286 limits assumed): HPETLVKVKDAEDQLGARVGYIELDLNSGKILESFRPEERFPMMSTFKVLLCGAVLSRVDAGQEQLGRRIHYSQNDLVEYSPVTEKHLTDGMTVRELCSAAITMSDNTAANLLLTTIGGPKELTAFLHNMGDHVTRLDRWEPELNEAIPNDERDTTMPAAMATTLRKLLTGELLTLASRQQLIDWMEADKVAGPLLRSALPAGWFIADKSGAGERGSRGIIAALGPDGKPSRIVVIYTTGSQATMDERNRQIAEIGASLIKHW
T1 sequence (P9WKD3 35-307 limits assumed): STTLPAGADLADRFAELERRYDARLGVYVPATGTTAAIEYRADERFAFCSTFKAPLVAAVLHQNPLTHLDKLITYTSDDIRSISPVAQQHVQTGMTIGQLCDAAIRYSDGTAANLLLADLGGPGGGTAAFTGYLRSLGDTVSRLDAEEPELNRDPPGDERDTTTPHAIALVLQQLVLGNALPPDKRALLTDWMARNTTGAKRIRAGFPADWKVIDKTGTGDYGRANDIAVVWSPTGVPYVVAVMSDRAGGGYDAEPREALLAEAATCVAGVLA

Compound: O=C(Cc1ccccc1)N[C@@H]1C(=O)N2C(C(=O)O)=C(COc3ccc4ccc(=O)oc4c3)CS[C@H]12 [CDC-1, (6R,7R)-8-Oxo-3-((2-oxo-2H-chromen-7-yloxy)methyl)-7-(2-phenylacetamido)-5-thia-1-azabicyclo[4.2.0]oct-2-ene-2-carboxylic acid]
- BlaC kcat [1]: 13 s⁻¹
- Km [1]: 63 µM
- change in fluorescence with TEM-1 Bla (in words) [2]: rapid fluorescence
- signal with TEM-1 Bla compared with BlaC (in words) ([2]; serially diluted enzymes, 1 hour): stronger signal than with BlaC
- fluorescence in E. coli expressing no β-lactamase, TEM-1 Bla or BlaC (in words) [3]: present in E. coli expressing either TEM-1 Bla or BlaC

Compound: CCN1CCN(C(=O)N[C@@H](C(=O)N[C@@H]2C(=O)N3C(C(=O)O)=C(COc4ccc5ccc(=O)oc5c4)CS[C@H]23)c2ccccc2)C(=O)C1=O [CDC-3, (6R,7R)-7-((R)-2-(4-Ethyl-2,3-dioxopiperazine-1-carboxamido)-2-phenylacetamido)-8-oxo-3-((2-oxo-2H-chromen-7-yloxy)methyl)-5-thia-1-azabicyclo[4.2.0]oct-2-ene-2-carboxylic acid]
- BlaC kcat [1]: 6 s⁻¹
- Km [1]: 69 µM
- change in fluorescence with TEM-1 Bla (in words) [2]: rapid fluorescence

Compound: CC(=O)N[C@@H]1C(=O)N2C(C(=O)O)=C(COc3ccc4ccc(=O)oc4c3)CS[C@H]12 [CDC-4, (6R,7R)-7-Acetamido-8-oxo-3-(((2-oxo-2H-chromen-7-yl)oxy)methyl)-5-thia-1-azabicyclo[4.2.0]oct-2-ene-2-carboxylic acid]
- BlaC kcat [1]: 10 s⁻¹
- Km [1]: 148 µM

Compound: CO[C@@]1(NC(C)=O)C(=O)N2C(C(=O)O)=C(COc3ccc4ccc(=O)oc4c3)CS[C@@H]21 [CDC-5, (6R,7S)-7-Acetamido-7-methoxy-8-oxo-3-(((2-oxo-2H-chromen-7-yl)oxy)methyl)-5-thia-1-azabicyclo[4.2.0]oct-2-ene-2-carboxylic acid]
- BlaC kcat [1]: 0.52 s⁻¹
- Km [1]: 139 µM

Compound: CCO[C@@]1(NC(=O)Cc2ccccc2)C(=O)N2C(C(=O)O)=C(COc3ccc4ccc(=O)oc4c3)CS[C@@H]21 [CDC-OEt, (6R,7S)-7-Ethoxy-8-oxo-3-((2-oxo-2H-chromen-7-yloxy)methyl)-7-(2-phenylacetamido)-5-thia-1-azabicyclo[4.2.0]oct-2-ene-2-carboxylic acid]
- BlaC kcat [1]: 0.026 s⁻¹
- further reduction in turnover number (BlaC) relative to CDC-OMe [1]: 40 fold
- Km [1]: 131 µM
- fluorescence enhancement by BlaC (in words) ([4]; within 30 minutes, BlaC 50 nM): only slight fluorescence enhancement

Compound: CO[C@@]1(NC(=O)Cc2ccccc2)C(=O)N2C(C(=O)O)=C(COc3ccc4ccc(=O)oc4c3)CS[C@@H]21 [CDC-OMe, (6R,7S)-7-Methoxy-8-oxo-3-((2-oxo-2H-chromen-7-yloxy)methyl)-7-(2-phenylacetamido)-5-thia-1-azabicyclo[4.2.0]oct-2-ene-2-carboxylic acid]
- BlaC kcat [1]: 1 s⁻¹
- catalytic efficiency (kcat/Km) for BlaC over TEM-1 Bla [1]: over 1,000 fold
- Km [1]: 47 µM
- F/F0 (turn-on ratio) [4, 10]: 2.3
- increase in the fluorescence intensity [4, 10]: 130%
- enhancement of fluorescence intensity by BlaC ([4]; in less than 30 minutes, BlaC 50 nM): more than 30 fold
- change in fluorescence with TEM-1 Bla (in words) [2]: no change in the fluorescence intensity
- F/F0 (turn-on ratio) ([2]; TEM-1 Bla 100 nM, one hour): 1.3
- fluorescence enhancement ([2]; TEM-1 Bla 100 nM, one hour): 30%
- fluorescence in E. coli expressing no β-lactamase, TEM-1 Bla or BlaC (in words) [3]: strong fluorescence was observed only with E. coli expressing BlaC

Compound: COc1ccc(-c2c3ccc(=O)cc-3oc3cc(OCc4ccc(OCC5=C(C(=O)O)N6C(=O)[C@@H](NC(=O)Cc7ccccc7)[C@H]6SC5)cc4)ccc23)c(C)c1 [CDG-1, (6R,7R)-3-((4-(((9-(4-Methoxy-2-methylphenyl)-3-oxo-3H-xanthen-6-yl)oxy)methyl)phenoxy)methyl)-8-oxo-7-(2-phenylacetamido)-5-thia-1-azabicyclo[4.2.0]oct-2-ene-2-carboxylic acid]
- BlaC kcat ([1]; pH 6.6): (1.0) s^−1
- number of TEM-1 Bla-carrying E. coli detected [5]: approximately 1,000
- number of BlaC-carrying E. coli detected [3]: ~10,000

Compound: COc1ccc(-c2c3ccc(=O)cc-3oc3cc(OCc4ccc(OCC5=C(C(=O)O)N6C(=O)[C@](NC(=O)Cc7ccccc7)(OC)[C@H]6SC5)cc4)ccc23)c(C)c1 [CDG-OMe, (6R,7S)-7-Methoxy-3-((4-(((9-(4-methoxy-2-methylphenyl)-3-oxo-3H-xanthen-6-yl)oxy)methyl)phenoxy)methyl)-8-oxo-7-(2-phenylacetamido)-5-thia-1-azabicyclo[4.2.0]oct-2-ene-2-carboxylic acid]
- increase of kcat/Km for BlaC relative to CDC-OMe [1]: 11 fold
- BlaC kcat ([1]; pH 6.6): (0.8) s^−1
- signal from TEM-1 Bla-expressing E. coli (in words) [5]: no detectable signal
- number of BCG detected ([6]; 20 min incubation): 2×10^5 CFU
- number of BCG detected ([6]; 438 mins (7 hours) incubation): 10^3 CFU
- amount of BlaC readily detectable ([4]; after 8 hours incubation): Less than 1 fmol
- increase of fluorescence emission at 520 nm upon treatment with BlaC ([4]; excitation 490 nm): up to 218 fold
- fluorescence signal generated by TEM-1 Bla relative to that by BlaC ([2]; TEM-1 Bla 400 nM vs BlaC 400 pM, 300 mins): 30%
- signal from BlaC-expressing E. coli (in words) [3]: strong fluorescent signal

Compound: BlaC (Mycobacterium tuberculosis H37Rv)
- Km ([7]; pH 6.6): (2.1)^c μM
- Km ([7]; pH 7.4): 2.1 µM
- kcat ([7]; pH 7.4): 3.7 s⁻¹
- kcat/Km ([7]; pH 7.4): 1.8 × 10^6 s^−1M^−1
- Km [8]: 136 µM
- kcat [8]: 0.51 s⁻¹
- kcat/Km [8]: 3.8 × 10^3 s^−1M^−1
- Km ([9]; pH 6.6): (4.7)^c μM
- Km ([9]; pH 7.4): 2.9 µM
- kcat ([9]; pH 7.4): 0.7 s⁻¹
- kcat/Km ([9]; pH 7.4): 2.4 × 10^5 s^−1M^−1

Reference: patent US9677112B2 (priority 2012, dated 2017)
